Biological target: T1, human recombinant PDE9 enzyme (Homo sapiens, UniProt O76083)
T1 construct: made in house; host or cells: SF-9 insect cells
Assay: Phosphodiesterase 9 (PDE9) inhibitory activity, Scintillation Proximity (SPA) assay
Format: biochemical
Details: not given
Method in brief: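 Recombinant human PDE9 from SF-9 cell lysate supernatant, diluted so that ≤20% of [3H]cGMP substrate was hydrolysed to 5′GMP. Reaction started with enzyme and run 30 min at room temperature with 2% DMSO final. SPA beads were counted after >300 min; background came from a high concentration of a PDE inhibitor.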

T1 sequence (O76083 whole entry): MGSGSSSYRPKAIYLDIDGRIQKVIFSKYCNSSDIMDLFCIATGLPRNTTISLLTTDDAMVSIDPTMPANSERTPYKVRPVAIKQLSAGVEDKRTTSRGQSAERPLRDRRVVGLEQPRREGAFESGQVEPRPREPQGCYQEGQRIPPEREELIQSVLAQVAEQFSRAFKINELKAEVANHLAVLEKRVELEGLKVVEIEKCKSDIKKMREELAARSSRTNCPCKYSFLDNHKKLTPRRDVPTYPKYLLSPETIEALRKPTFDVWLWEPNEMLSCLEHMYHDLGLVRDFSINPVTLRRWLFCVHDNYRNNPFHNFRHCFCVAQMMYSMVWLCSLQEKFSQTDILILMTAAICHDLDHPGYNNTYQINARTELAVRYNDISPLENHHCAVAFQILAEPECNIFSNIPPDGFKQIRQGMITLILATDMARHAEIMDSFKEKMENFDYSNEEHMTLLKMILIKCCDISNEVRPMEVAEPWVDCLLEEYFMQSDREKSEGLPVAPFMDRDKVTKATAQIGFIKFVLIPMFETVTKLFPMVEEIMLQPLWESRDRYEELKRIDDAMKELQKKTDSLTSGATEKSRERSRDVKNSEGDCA

SMILES	IC50
CCC1CN(Cc2ccccc2)CC1c1nc2c(cnn2C2CCOCC2)c(=O)[nH]1 (racemic) [97(a), 6-[(3,4-trans)-1-benzyl-4-ethylpyrrolidin-3-yl]-1-(tetrahydro-2H-pyran-4-yl)-1,5-dihydro-4H-pyrazolo[3,4-d]pyrimidin-4-one]	7.2 nM
C[C@@H]1CN(Cc2ccccc2)C[C@H]1c1nc2c(cnn2C2CCOCC2)c(=O)[nH]1 [Example 61, 6-[(3S,4S)-1-benzyl-4-methylpyrrolidin-3-yl]-1-(tetrahydro-2H-pyran-4-yl)-1,5-dihydro-4H-pyrazolo[3,4-d]pyrimidin-4-one]	7.35 nM
COc1ccc(CN2C[C@@H](C)[C@H](c3nc4c(cnn4C4CCOCC4)c(=O)[nH]3)C2)cc1 [Example 101, 6-[(3S,4S)-1-(4-methoxybenzyl)-4-methylpyrrolidin-3-yl]-1-(tetrahydro-2H-pyran-4-yl)-1,5-dihydro-4H-pyrazolo[3,4-d]pyrimidin-4-one]	7.94 nM
C[C@@H]1CN(Cc2ccccc2F)C[C@H]1c1nc2c(cnn2C2CCOCC2)c(=O)[nH]1 [Example 98, 6-[(3S,4S)-1-(2-fluorobenzyl)-4-methylpyrrolidin-3-yl]-1-(tetrahydro-2H-pyran-4-yl)-1,5-dihydro-4H-pyrazolo[3,4-d]pyrimidin-4-one]	7.93 nM

Same assay, conditions: human recombinant PDE9 from SF-9 cells; 50 nM [3H]cGMP; room temperature, 30 min; Examples 3-114; read-out: G5678A (U): IC50

SMILES	IC50
C[C@@H]1CN(Cc2cnc3ccccc3n2)C[C@H]1c1nc2c(cnn2C2CCOCC2)c(=O)[nH]1 [Example 85]	0.903 nM
CC[C@@H]1CN(Cc2ccccc2C#N)C[C@H]1c1nc2c(cnn2C2CCOCC2)c(=O)[nH]1 [Example 112, 2-({(3S,4S)-3-ethyl-4-[4-oxo-1-(tetrahydro-2H-pyran-4-yl)-45-dihydro-1H-pyrazolo[3,4-d]pyrimidin-6-yl]pyrrolidin-1-yl}methyl)benzonitrile]	1.37 nM
Cc1ncccc1CN1C[C@@H](C)[C@H](c2nc3c(cnn3C3CCCC3)c(=O)[nH]2)C1 (racemic) [Example 17, 1-cyclopentyl-6-{(3,4-trans)-4-methyl-1-[(2-methylpyridin-3-yl)methyl]pyrrolidin-3-yl}-1,5-dihydro-4H-pyrazolo[3,4-d]pyrimidin-4-one]	16.2 nM
Cc1ncc(CN2C[C@@H](C)[C@H](c3nc4c(cnn4C4CCC4)c(=O)[nH]3)C2)cn1 (racemic) [Example 83, 1-cyclobutyl-6-{(3,4-trans)-4-methyl-1-[(2-methylpyrimidin-5-yl)methyl]pyrrolidin-3-yl}-1,5-dihydro-4H-pyrazolo[3,4-d]pyrimidin-4-one]	24.5 nM
Cc1cc(CN2C[C@@H](C)[C@H](c3nc4c(cnn4C4CCOCC4)c(=O)[nH]3)C2)n(C)n1 [Example 82, 6-{(3S,4S)-1-[(1,3-dimethyl-1H-pyrazolo-5-yl)methyl]-4-methylpyrrolidin-3-yl}-1-(tetrahydro-2H-pyran-4-yl)-1,5-dihydro-4H-pyrazolo[3,4-d]pyrimidin-4-one]	5.18 nM
C[C@@H]1CN(Cc2ccccc2)C[C@H]1c1nc2c(cnn2CC(F)(F)F)c(=O)[nH]1 (relative stereo) [Example 64]	873 nM
CC[C@@H]1CN(Cc2ccccc2)C[C@H]1c1nc2c(cnn2C2CCCC2)c(=O)[nH]1 (racemic) [Example 28, 6-[(3,4-trans)-1-benzyl-4-ethylpyrrolidin-3-yl]-1-cyclopentyl-1,5-dihydro-4H-pyrazolo[3,4-d]pyrimidin-4-one]	6.86 nM
Cc1ncc(CN2C[C@@H](C)[C@H](c3nc4c(c(C)nn4C4CCOCC4)c(=O)[nH]3)C2)cn1 [Example 93, 3-methyl-6-{(3S,4S)-4-methyl-1-[(2-methylpyrimidin-5-yl)methyl]pyrrolidin-3-yl}-1-(tetrahydro-2H-pyran-4-yl)-1,5-dihydro-4H-pyrazolo[3,4-d]pyrimidin-4-one]	24.3 nM
CC[C@@H]1CN(Cc2ccccn2)C[C@H]1c1nc2c(cnn2C2CCOCC2)c(=O)[nH]1 [Example 109, 6-[(3S,4S)-4-ethyl-1-(pyridin-2-ylmethyl)pyrrolidin-3-yl]-1-(tetrahydro-2H-pyran-4-yl)-1,5-dihydro-4H-pyrazolo[3,4-d]pyrimidin-4-one]	4.21 nM
COc1ccc(CN2C[C@@H](C)[C@H](c3nc4c(cnn4C(C)C)c(=O)[nH]3)C2)cn1 [Example 43, 1-isopropyl-6-{(3S,4S)-1-[(6-methoxypyridin-3-yl)methyl]-4-methylpyrrolidin-3-yl}1,5-dihydro-4H-pyrazolo[3,4-d]pyrimidin-4-one]	36.4 nM

Same assay, conditions: human recombinant PDE9 from SF-9 cells; 50 nM [3H]cGMP; room temperature, 30 min; additional compounds Ex. 115-228; read-out: G5678A (U):IC50

SMILES	IC50
COc1cc(CN2C[C@@H](C)[C@H](c3nc4c(cnn4C4CCCC4)c(=O)[nH]3)C2)ccc1F (racemic) [Example 148, 1-cyclopentyl-6-[(3,4-trans)-1-(4-fluoro-3-methoxybenzyl)-4-methylpyrrolidin-3-yl]-1,5-dihydro-4H-pyrazolo[3,4-d]pyrimidin-4-one]	36 nM
C[C@@H]1CN(Cc2ccc3c(c2)CCO3)C[C@H]1c1nc2c(cnn2C2CCCC2)c(=O)[nH]1 (racemic) [Example 216, 1-cyclopentyl-6-[(3,4-trans)-1-(2,3-dihydro-1-benzofuran-5-ylmethyl)-4-methylpyrrolidin-3-yl]-1,5-dihydro-4H-pyrazolo[3,4-d]pyrimidin-4-one]	17.4 nM
COc1ccc(F)c(CN2C[C@@H](C)[C@H](c3nc4c(cnn4C4CCCC4)c(=O)[nH]3)C2)c1 (racemic) [Example 194, 1-cyclopentyl-6-[(3,4-trans)-1-(2-fluoro-5-methoxybenzyl)-4-methylpyrrolidin-3-yl]-1,5-dihydro-4H-pyrazolo[3,4-d]pyrimidin-4-one]	54.7 nM
C[C@@H]1CN(Cc2ccc(-n3cccn3)cc2)C[C@H]1c1nc2c(cnn2C2CCCC2)c(=O)[nH]1 (racemic) [Example 185, 1-cyclopentyl-6-{(3,4-trans)-4-methyl-1-[4-(1H-pyrazol-1-yl)benzyl]pyrrolidin-3-yl}-1,5-dihydro-4H-pyrazolo[3,4-d]pyrimidin-4-one]	33.5 nM
C[C@@H]1CN(Cc2cn3ccccc3n2)C[C@H]1c1nc2c(cnn2C2CCCC2)c(=O)[nH]1 (racemic) [Example 178, 1-cyclopentyl-6-[(3,4-trans)-1-(imidazo[1,2-a]pyridin-2-ylmethyl)-4-methylpyrrolidin-3-yl]-1,5-dihydro-4H-pyrazolo[3,4-d]pyrimidin-4-one]	44.7 nM
COc1cccc(CN2C[C@@H](C)[C@H](c3nc4c(cnn4C4CCCC4)c(=O)[nH]3)C2)c1 (racemic) [Example 204, 1-cyclopentyl-6-[(3,4-trans)-1-(3-methoxybenzyl)-4-methylpyrrolidin-3-yl]-1,5-dihydro-4H-pyrazolo[3,4-d]pyrimidin-4-one]	9.56 nM
CCn1nccc1CN1C[C@@H](C)[C@H](c2nc3c(cnn3C3CCCC3)c(=O)[nH]2)C1 (racemic) [Example 223, 1-cyclopentyl-6-{(3,4-trans)-1-[(1-ethyl-1H-pyrazol-5-yl)methyl]-4-methylpyrrolidin-3-yl}-1,5-dihydro-4H-pyrazolo[3,4-d]pyrimidin-4-one]	14.4 nM
CC(C)c1ccc(CN2C[C@@H](C)[C@H](c3nc4c(cnn4C4CCCC4)c(=O)[nH]3)C2)cc1 (racemic) [Example 169, 1-cyclopentyl-6-[(3,4-trans)-1-(4-isopropylbenzyl)-4-methylpyrrolidin-3-yl]-1,5-dihydro-4H-pyrazolo[3,4-d]pyrimidin-4-one]	117 nM
C[C@@H]1CN(Cc2coc(-c3ccccc3)n2)C[C@H]1c1nc2c(cnn2C2CCCC2)c(=O)[nH]1 (racemic) [Example 179, 1-cyclopentyl-6-{(3,4-trans)-4-methyl-1-[(2-phenyl-1,3-oxazol-4-yl)methyl]pyrrolidin-3-yl}-1,5-dihydro-4H-pyrazolo[3,4-d]pyrimidin-4-one]	47.2 nM
C[C@@H]1CN(Cc2ccccc2C#N)C[C@H]1c1nc2c(cnn2C2CCCC2)c(=O)[nH]1 (racemic) [Example 157, 2-{[(3,4-trans)-3-(1-cyclopentyl-4-oxo-4,5-dihydro-1H-pyrazolo[3,4-d]pyrimidin-6-yl)-4-methylpyrrolidin-1-yl]methyl}benzonitrile]	56.4 nM
COc1ccc(CN2C[C@@H](C)[C@H](c3nc4c(cnn4C4CCCC4)c(=O)[nH]3)C2)c(F)c1 (racemic) [Example 129, 1-cyclopentyl-6-[(3,4-trans)-1-(2-fluoro-4-methoxybenzyl)-4-methylpyrrolidin-3-yl]-1,5-dihydro-4H-pyrazolo[3,4-d]pyrimidin-4-one]	71.8 nM
C[C@@H]1CN(CCCC(F)(F)F)C[C@H]1c1nc2c(cnn2C2CCCC2)c(=O)[nH]1 (racemic) [Example 203, 1-cyclopentyl-6-{(3,4-trans)-4-methyl-1-(4,4,4-trifluorobutyl)pyrrolidin-3-yl]-1,5-dihydro-4H-pyrazolo[3,4-d]pyrimidin-4-one]	83.7 nM
C[C@@H]1CN(Cc2cnn3c2CCCC3)C[C@H]1c1nc2c(cnn2C2CCCC2)c(=O)[nH]1 (racemic) [Example 121, 1-cyclopentyl-6-[(3,4-trans)-4-methyl-1-(4,5,6,7-tetrahydropyrazolo[1,5-a]pyridin-3-ylmethyl)pyrrolidin-3-yl]-1,5-dihydro-4H-pyrazolo[3,4-d]pyrimidin-4-one]	83.9 nM
Cc1ncc(CN2C[C@@H](C)[C@H](c3nc4c(cnn4C4CCCC4)c(=O)[nH]3)C2)s1 (racemic) [Example 131, 1-cyclopentyl-6-{(3,4-trans)-4-methyl-1-[(2-methyl-1,3-thiazol-5-yl)methyl]pyrrolidin-3-yl}-1,5-dihydro-4H-pyrazolo[3,4-d]pyrimidin-4-one]	41.9 nM
C[C@@H]1CN(Cc2cccc3c2OCC3)C[C@H]1c1nc2c(cnn2C2CCCC2)c(=O)[nH]1 (racemic) [Example 126, 1-cyclopentyl-6-[(3,4-trans)-1-(2,3-dihydro-1-benzofuran-7-ylmethyl)-4-methylpyrrolidin-3-yl]-1,5-dihydro-4H-pyrazolo[3,4-d]pyrimidin-4-one]	88.7 nM

Reference: patent US7964607B2, “Pyrazolo[3,4-d]pyrimidine compounds” (Pfizer Inc., priority 2007, dated 2011)
